Experimental data reported in patent US11713305B2, “Zinc sensors for in vivo imaging of beta-cell function by MRI” (The Board of Regents of the University of Texas System, priority 2017, dated 2023).

What was measured:
mouse pancreas = experiment: In vivo MR imaging of glucose stimulated insulin secretion (GSIS) in the mouse pancreas; set-up: species or system C57B1/6 mice; conditions: for T1-weighted MR image enhancement in pancreatic tissues and kidneys: over the first 10-15 min after injection
Source text: Both phases of insulin secretion are considered essential, but the early RRP phase that is thought to be the first signal reduced during the development of type 2 diabetes (Komatsu et al., 2013; Hosker et al., 1989). In principle, both phases of insulin secretion should be detectable by MRI if enough sensor is present in the extracellular space during the time-course of these events. Biphasic GSIS was not detected by MRI in previous experiments using the first generation Zn^2+ sensors with a high affinity for Zn^2+ but we hypothesized that GSIS may be more easily detected using these second-generation agents having a much lower affinity for Zn^2+. To test this, dynamic MRI scans were collected after administering either GdL1, GdL2, GdL3 or GdL4 to C57B1/6 mice via a tail vein (0.07 mmol/kg). Nearly simultaneously with agent injection, a bolus (50 μL) of 20% w/v glucose was administered IP to stimulate secretion of insulin.
All animal experiments were performed in accordance with guidelines set by the UT Southwestern Institutional Animal Care and Use Committee (IACUC). Male C57b1/6 mice were fasted for at least 12 hours before imaging experiments. The animals were anaesthetized with isofluorane and catheterized via the tail vein. Once the animals were secured inside a 38 mm volume coil, the pancreas was positioned in the center of the 9.4 T Varian MRI scanner. Two 3D T1-weighted gradient echo pre-injection scans were obtained (TE/TR=1.69/3.34 ms, NEX8, Matrix=128×128 ×128). 70 μl of 20 mM contrast agent were injected i.v. and 50 μl of 20% w/v D-glucose were injected intraperitoneally and consecutive 3D T1-weighted scans were obtained sequentially to monitor signal enhancement in the pancreas. Identification of the pancreas was accomplished by locating the tissues surrounded by the spleen, stomach, and kidneys. A total of 3 animals were scanned per group and images were quantified and analyzed using ImageJ (National Institutes of Health, Bethesda, Md.). The signal intensities from ROIs of the tip of the pancreas were measured before, at every ˜3-4 minutes post D-glucose injection over 30 minutes total. The values were normalized to the signal intensity obtained from a water phantom placed on the mouse abdomen. Contrast enhancement was calculated using the formula
[formula] Statistical analysis was performed by comparing the mean values using a two-tailed t-test. Statistical difference was evaluated using t-scores and p-values at a 95 and 99% confidence level.

[1] = 17O NMR of DyL4 without and with HSA; assay type: physicochemical; conditions: no HSA
Method: To gain more insights into this process, further ^17O NMR experiments performed using DyL4 in the presence of 0.6 mM HSA (Dy^3+ was substituted for Gd^3+ for improved fitting purposes, FIGS. 2 and 3 and Table 4).
^17O NMR experiments were performed at 9.4 T on a Bruker AVANCE III NMR spectrometer. The temperature was regulated by air flow controlled by a Bruker VT unit. The samples ([Gd^3+]=25 mM; [Dy^3+]=1 mM) were prepared in ^17O enriched water (10%) with the pH being maintained at 7.4 with 100 mM Tris buffer. The sample was loaded into a 18 μL spherical bulb (Wilmad-Lab Glass, Vineland, NJ) and placed inside a 5 mm NMR tube containing 400 μL of water to eliminate any susceptibility effects. Longitudinal relaxation rates (1/T1) were obtained by the inversion recovery method and transverse relaxation rates (1/T2) were obtained by the Carr-Purcell—Meiboom—Gill spin echo technique. The acidified water (pH=3.0) containing 10% enriched ^17O water was used as a reference for the measurements. For the DyL4 complexes (no HSA and with HSA+Zinc), acidified water solutions and 1 mM LaL4+3 mM HSA with zinc (1:1) were used as the corresponding references. The corresponding fittings were performed with the Scientist 3.0 software (Micromath®).
With Dy^3+ solutions the correlation time for dipolar relaxation is governed by the electron spin relaxation time Te which is much shorter than Tm and τR. For this reason, ^17O transversal relaxation rates predominantly originates from Curie spin relaxation (Caravan et al., 2001; Karimi and Helm, 2016). The Curie relaxation is described by Fries (Vigouroux et al., 1999) and simplified by the Swift-Connick equations (Swift and Connick, 1962): […]
The water exchange rates kex and the chemical shift differences (inner-sphere water and bulk water) Δωm can be expressed as: […]
C1 and C2 are empirical constants described by Lewis and Bleaney (1972), and represent the relative contributions of the contact and pseudocontact terms. B is the external magnetic field.

O=C(O)CN1CCN(CCC(=O)NCCN(Cc2ccccn2)Cc2ccccn2)CCN(CC(=O)O)CCN(CC(=O)O)CC1 [GdL2]
T1-weighted MR image enhancement in pancreatic tissues and kidneys (mouse pancreas; 0.07 mmol/kg i.v., glucose IP): significant image enhancements | 1/T2m^298 [1]: 600 ± 20 10^4 s^−1 | A1 [1]: −73 ± 2 10^6rad s^−1K T^−1 | A2 [1]: 0.3 ± 0.1 10^9rad s^−1K^2 T^−1 | ER [1]: 9.56 ± 2.39 kcal/mol | ΔH^‡ [1]: 9.87 ± 0.12 kcal/mol | kex^298 ([1]; 17O enriched water, TRIS buffered): 4.3 ± 0.1 10^6 s^−1

O=C(O)CN1CCN(CC(=O)O)CCN(CC(=O)NCCN(Cc2ccccn2)Cc2ccccn2)CCN(CC(=O)O)CC1 [GdL1]
T1-weighted MR image enhancement in pancreatic tissues and kidneys (mouse pancreas; 0.07 mmol/kg i.v., glucose IP): significant image enhancements | pancreatic response at 3 minutes (FIG. 7A) (mouse pancreas; post-glucose stimulation): enhance the pancreas

O=C(O)CCN1CCN(CC(=O)O)CCN(CC(=O)NCCN(Cc2ccccn2)Cc2ccccn2)CCN(CC(=O)O)CC1 [GdL3]
T1-weighted MR image enhancement in pancreatic tissues and kidneys (mouse pancreas; 0.07 mmol/kg i.v., glucose IP): significant image enhancements

O=C(O)CN1CCN(CC(=O)O)CCN(CC(=O)NCCN(CCc2ccccn2)Cc2ccccn2)CCN(CC(=O)O)CC1 [GdL4]
dynamic images: phases of insulin secretion detected (mouse pancreas; 0.07 mmol/kg i.v., glucose IP, n=3): both early phase (3-4 min) and late phase (13-17 min) insulin secretion | Area under the curve (AUC) t=11−19 minutes post-glucose stimulation (FIG. 7C) (mouse pancreas; compared to control Gd-HPDO3A and GdL1): improved bi-phasic profile | enhancement profile from pancreas ROI normalized to external phantom (FIG. 7B) (mouse pancreas; mouse, in vivo): distinct bi-phasic profile | pancreatic response at 3 minutes (FIG. 7A) (mouse pancreas; post-glucose stimulation): enhance the pancreas | pancreatic response at 15 minutes (FIG. 7A) (mouse pancreas; post-glucose stimulation): shows second-phase enhancement
